In patent publication US12133855B2, “Lipid-like nanocomplexes and uses thereof” (Trustees of Tufts College, priority 2018, dated 2024):

Test system: Ai14 mice
Experiment: In vivo genome editing, intramuscular injection, tdTomato expression
Set-up: species or system mouse
Settings: single IM dose, day 10
Experimental: Similar to the in vitro transfection study, lipidoid nanoparticles were prepared for mRNA or protein loading and in vivo delivery. Ai14 mice were housed in a temperature and humidity controlled facility with a 12 h light/dark cycle. Three mice in each group were injected (intravenously or intramuscularly) with Cre mRNA-loaded or (−30)GFP-Cre protein-loaded LNPs formulations. Organs including heart, liver, spleen, lung and kidney from all groups were collected at day 10 (intramuscular injection) or 14 (intravenous injection) after injection. The tissues were fixed overnight in 4% paraformaldehyde (PFA) and dehydrated in 30% sucrose before being froze in OCT and sectioned into 10-15 μm slices. The slices were then collected and stained with DAPI for fluorescence imaging (BZ-X Analyzer fluorescence microscopy).
Cre-loxP system and transgenic Ai14 mouse model were used in the in vivo genome editing study. […] When the Cre recombinase mediated gene reorganization occurs, the STOP cassette could be removed, resulting in the expression of fluorescent tdTomato reporter protein.
Local delivery through intramuscular injection (IM injection; rear leg) using (−30)GFP-Cre protein and Cre mRNA loaded 76-OCholB LNPs (FIG. 17B). Ai14 mice (n=3) received single dose of (−30)GFP-Cre/LNPs (50 μg of protein) or mRMA/LNPs (10 μg of mRNA) injection at day 1 and were sacrificed at day 10. […]

## CC(C)CCCC(C)C1CCC2C3CC=C4CC(OC(=O)NCCSSCCOC(=O)CCN(CCC(=O)OCCSSCCNC(=O)OC5CCC6(C)C(=CCC7C6CCC6(C)C(C(C)CCCC(C)C)CCC76)C5)CCN5CCCC5)CCC4(C)C3CCC12C (centres unmarked) [Lipidoid 76-OCholB]
(−30)GFP-Cre protein loaded, 50 μg protein
  tdTomato fluorescent signals in skeletal muscle: strong tdTomato fluorescent signals
Cre mRNA loaded, 10 μg mRNA
  tdTomato fluorescent signals in skeletal muscle: strong tdTomato fluorescent signals
